Laboratory results: patent publication US5688807A, “Method for treating 5HT2B receptor related conditions” (Eli Lilly and Company, priority 1995, dated 1997)
Where a name gives a salt, the structure may show the parent alone. Read-outs that look alike come from different tables or passages of the source.

What was measured:
rat 5-HT2B receptor = rat 5-HT2B receptor (Rattus norvegicus, UniProt P30994); assay: biochemical; type: binding;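 further: displacement of [3H]5-HT from membranes of suspension cells carrying cloned rat 5-HT2B receptor, incubated 15 min at 37 °C or 2 h at 0 °C, filter-bound radioactivity counted by scintillation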
Sequence of rat 5-HT2B receptor (P30994 whole entry): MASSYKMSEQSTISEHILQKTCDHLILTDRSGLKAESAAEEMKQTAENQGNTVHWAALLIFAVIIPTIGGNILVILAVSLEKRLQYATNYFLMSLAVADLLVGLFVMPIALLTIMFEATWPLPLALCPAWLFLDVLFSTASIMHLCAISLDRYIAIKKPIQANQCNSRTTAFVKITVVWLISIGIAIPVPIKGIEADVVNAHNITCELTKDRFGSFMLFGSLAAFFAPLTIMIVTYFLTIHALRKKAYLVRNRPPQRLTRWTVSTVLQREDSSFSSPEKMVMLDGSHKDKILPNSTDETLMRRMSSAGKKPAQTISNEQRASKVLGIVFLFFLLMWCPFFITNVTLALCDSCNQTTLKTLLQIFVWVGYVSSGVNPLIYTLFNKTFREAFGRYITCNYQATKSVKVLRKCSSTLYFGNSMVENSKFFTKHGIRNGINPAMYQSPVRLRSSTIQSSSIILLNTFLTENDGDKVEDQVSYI

[1] = target: 5-HT2B receptor (rat stomach fundus) (Rattus norvegicus, UniProt P30994);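 further: isometric contraction of isolated male Wistar rat stomach fundus strips, serotonin concentration-response curves after antagonist incubation, KB from dose ratio of agonist potency versus control curve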
Sequence of 5-HT2B receptor (rat stomach fundus) (P30994 whole entry): as above

[2] = [3H]Serotonin; 5-HT2B cells; AVG; read-out: Ki Rat 5-HT2B
[3] = rat stomach fundus, vs serotonin, ± standard error, read-out: 5-HT2B (Fundus) -log KB (converted)
[4] = Ki Rat 5-HT2B, [3H]Serotonin; 5-HT2B cells; AVG

Row | Structure (SMILES) | Ki (rat 5-HT2B receptor; [2]) | Ki (rat 5-HT2B receptor; [4]) | also measured
1 | CCCCC(=O)c1cccc2c1CC(NC)CC2 (stereo not drawn) | 5150 nM |  | 
2 | c1ccc(COc2cccc3c4c([nH]c23)CNCC4)cc1 | 5650 nM |  | 
3 | COc1ccc(CC2NCCc3c2[nH]c2ccc(C)cc32)cc1F (stereo not drawn) [Example 34, 6-methyl-1-[(3-fluoro-4-methoxyphenyl)-methyl]-1,2,3,4-tetrahydro-9H-pyrido[3,4-b]indole hydrochloride] |  |  | Kb [1, 3]: 0.38 nM
4 | Fc1cccc2c3c([nH]c12)CNCC3 |  | 25.6 nM | 
5 | CCCN(CCC)CCc1c[nH]c2ccc(O)cc12 |  | 61 nM | 
6 | CC(C)c1ccc2[nH]c3c(c2c1)CCNC3C(C)c1cccc2ccccc12 (racemic) [Example 50, hydrochloride] |  |  | Kb [1, 3]: 3.98 nM
7 | Cc1ccc2[nH]c3c(c2c1)CCN[C@H]3Cc1cccc2ccccc12 [Example 64, (-)-(S)-6-methyl-1,2,3,4-tetrahydro-1-(1-naphthalenylmethyl)-9H-pyrido [3,4-b] indole hydrochloride] |  |  | Kb [1, 3]: 0.186 nM
8 | COc1ccc(CC2NCCc3c2[nH]c2c(Br)cc(Br)cc32)cc1OC (stereo not drawn) [Example 3, 6,8-dibromo-1-[(3,4-dimethoxyphenyl)methyl]-1,2,3,4-tetrahydro-9H-pyrido[3,4-b]indole] |  |  | Kb [1, 3]: 1.66 nM
9 | CN1CC(C(=O)NCc2cccnc2)CC2c3cccc4[nH]cc(c34)CC21 (stereo not drawn) |  | 35.1 nM | 
10 | CC(C)c1ccc2[nH]c3c(c2c1)CCNC3C(C)c1cccc2ccccc12 (stereo not drawn) | 14.2 nM |  | 
11 | NCCc1c[nH]c2ccc(OCc3ccccc3)cc12 |  | 30.2 nM | 
12 | NCCc1c[nH]c2c1ccc1ccccc12 | 155 nM |  | 
13 | Cc1ccc2[nH]c3c(c2c1)CCN(C)C3Cc1cccc2ccccc12 (racemic) [Example 58, (+/-) 2,6-dimethyl-1-(1-naphthalenylmethyl)-1,2,3,4-tetrahydro-9H-pyrido [3,4-b] indole hydrochloride] |  |  | Kb [1, 3]: > 30.2 nM
14 | COc1cc(CC2NCCc3c2[nH]c2ccc(C)cc32)cc(I)c1OC (stereo not drawn) [drawing 153] | 4.82 nM |  | 
15 | NCCc1c[nH]c2c(F)cccc12 |  | 62.4 nM | 
16 | Cc1ccc2[nH]c3c(c2c1)CCNC3CC1CCCCC1 (stereo not drawn) [Example 39, 6-methyl-1-(cyclohexylmethyl)-1,2,3,4-tetrahydro-9H-pyrido[3,4-b]indole hydrochloride] |  |  | Kb [1, 3]: 4.79 nM
17 | COc1ccc2[nH]c3c(c2c1)CCNC3 |  | 405 nM | 
18 | COc1ccc(CC2NCCc3c2[nH]c2c(Br)c(C)ccc32)cc1OC (stereo not drawn) [Example 7, 7-methyl-8-bromo-1-[(3,4-dimethoxyphenyl)-methyl]-1,2,3,4-tetrahydro-9H-pyrido[3,4-b]indole hydrochloride] |  |  | Kb [1]: 0.955 nM
19 | COc1ccc(CC2NCCc3c2[nH]c2c(C)ccc(C)c32)cc1OC (stereo not drawn) [Example 12, 5,8-dimethyl-1,2,3,4-tetrahydro-1-[(3,4-dimethoxyphenyl)methyl]-9H-pyrido[3,4b]indole hydrochloride] |  |  | Kb [1, 3]: 0.513 nM
20 | COc1ccc(CC2NCCc3c2[nH]c2ccc(C4CCCCC4)cc32)cc1OC (stereo not drawn) [drawing 149] | 1460 nM |  | 
21 | Brc1cccc2c3c([nH]c12)C(Cc1cccc2ccccc12)NCC3 (racemic) [Example 52, (±) 8-bromo-1-(1-naphthalenylmethyl)-1,2,3,4-tetrahydro-9H-pyrido [3,4-b]indole hydrochloride] |  |  | Kb [1, 3]: ~0.794 nM
22 | NCCc1c[nH]c2cc(F)ccc12 |  | 40.6 nM | 
23 | Cc1ccc2[nH]c3c(c2c1F)CCNC3Cc1cccc2ccccc12 (racemic) [Example 59, (+/-) 5-fluoro-6-methyl-1-(1-naphthalenylmethyl)-1,2,3,4-tetrahydro-9H-pyrido [3,4-b] indole (Z)-2-butenedioate] |  |  | Kb [1, 3]: 0.204 nM
24 | NCCc1c[nH]c2c(O)cc(O)cc12 |  | 4570 nM | 
25 | COc1ccc(C(C)C2NCCc3c2[nH]c2ccc(C)cc32)cc1OC (racemic) [Example 40] |  |  | Kb [1, 3]: 0.178 nM
26 | NCCc1c[nH]c2c(Br)cccc12 |  | 32 nM | 

Row | Structure (SMILES) | Ki (rat 5-HT2B receptor; [2]) | Ki (rat 5-HT2B receptor; [4]) | also measured
27 | Cc1ccc2[nH]c3c(c2c1)CCNC3Cc1ccc(C)c(C)c1 (stereo not drawn) [Example 35, 6-methyl-1-[(3,4-dimethylphenyl)methyl]-1,2,3,4-tetrahydro-9H-pyrido[3,4-b]indole hydrochloride] |  |  | Kb ([1]; read-out: 5-HT2B (Fundus) -log KB (converted)): ~0.871 nM
28 | Cc1[nH]c2ccc(O)cc2c1CCN | 284 nM |  | 
29 | CN1CC(C(=O)NCCc2ccccn2)CC2c3cccc4c3c(cn4C)CC21 (stereo not drawn) |  | 24.5 nM | 
30 | COc1ccc(CC2NCCc3c2[nH]c2c(C)c(C)ccc32)cc1OC (stereo not drawn) [Example 19, 7,8-dimethyl-1,2,3,4-tetrahydro-1-[(3,4-dimethoxyphenyl)methyl]-9H-pyrido[3,4b]indole hydrochloride] |  |  | Kb [1]: 0.0759 nM
31 | COc1ccc(CC2c3[nH]c4ccc(C(C)C)cc4c3CCN2C)cc1OC (stereo not drawn) [Example 45, 2-methyl-6-(1-methylethyl)-1,2,3,4-tetrahydro-1-[(3,4-dimethoxyphenyl)methyl]-9H-pyrido-[3,4b]indole maleate] |  |  | 5-HT2B (Fundus) -log KB ([1]; rat stomach fundus, vs serotonin, ± standard error): 8.14 ± 0.32
32 | Clc1ccc2[nH]c3c(c2c1)CCNC3 [drawing 166] |  | 70.7 nM | 
33 | NCCc1c[nH]c2c(F)ccc(F)c12 |  | 337 nM | 
34 | NCc1c[nH]c2ccc(Br)cc12 |  |  | Ki (rat 5-HT2B receptor; read-out: Ki Rat 5-HT2B; [3H]Serotonin; 5-HT2B cells; AVG): 39.3 nM
35 | COc1ccc(CC2NCCc3c2[nH]c2c(Br)cc(C)cc32)cc1OC (stereo not drawn) [Example 4, 6-methyl-8-bromo-1-[(3,4-dimethoxyphenyl)-methyl]-1,2,3,4-tetrahydro-9H-pyrido[3,4-b]indole hydrochloride] |  |  | Kb [1, 3]: 1.2 nM
36 | Cc1cccc2c3c([nH]c12)CNCC3 | 60.1 nM |  | 
37 | c1ccc2c(CC3NCCc4c3[nH]c3ccc(C5CCCCC5)cc43)cccc2c1 (racemic) [Example 57, (+/-) 6-cyclohexyl-1-(1-naphthalenylmethyl)-1,2,3,4-tetrahydro-9H-pyrido [3,4-b] indole hydrochloride] |  |  | Kb [1, 3]: > 10 nM
38 | COc1c(O)ccc(CC2NCCc3c2[nH]c2ccc(C)cc32)c1Cl (stereo not drawn) [Example 37, 6-methyl-1-[(2-chloro-3-methoxy-4-hydroxyphenyl)methyl]-1,2,3,4-tetrahydro-9H-pyrido[3,4-b]-indole hydrochloride] |  |  | Kb [1, 3]: 0.646 nM
39 | CCN(C)CCc1c[nH]c2ccc(OCc3ccccc3)cc12 |  | 84.5 nM | 
40 | Cc1c(Br)ccc2c3c([nH]c12)CNCC3 | 32.4 nM |  | 
41 | CC(N)Cc1c[nH]c2ccc(F)cc12 (stereo not drawn) |  | 6.52 nM | 
42 | COc1ccc(CC2NCCc3c2[nH]c2ccc(C(C)(C)C)cc32)cc1OC (stereo not drawn) [drawing 148] | 39.7 nM |  | 
43 | CCCc1ccc2[nH]c3c(c2c1)CCNC3Cc1ccc(OC)c(OC)c1 (stereo not drawn) | 28.4 nM |  | 
44 | Cc1c(Br)ccc2c(CCN)c[nH]c12 |  | 20.8 nM | 
45 | Fc1ccc2[nH]c3c(c2c1)CCNC3 | 322 nM |  | 
46 | NCCc1c[nH]c2ccccc12 | 113 nM |  | 
47 | COc1ccc(CC2NCCc3c2[nH]c2ccc(-c4ccccc4)cc32)cc1OC (stereo not drawn) | 229 nM |  | 
48 | NCCc1c[nH]c2ccc(F)cc12 | 5.65 nM |  | 
49 | Cc1ccc2[nH]c3c(c2c1F)CCNC3Cc1cccc2ccccc12 (stereo not drawn) | 4.38 nM |  | 
50 | CCCC(=O)c1cccc2c1CC(N(C)C)CC2 (stereo not drawn) | 862 nM |  | 
51 | Cc1cc(Br)c2[nH]cc(CCN)c2c1 |  | 37.6 nM | 
52 | CC(O)C(C)OC(=O)C1CC2c3cccc4[nH]cc(c34)CC2N(C)C1 (stereo not drawn) | 12.2 nM |  | 

Row | Structure (SMILES) | Ki (rat 5-HT2B receptor; [2]) | Ki (rat 5-HT2B receptor; [4]) | also measured
53 | CCCN(CCC)C1CCc2cccc(O)c2C1 (stereo not drawn) | 4120 nM |  | 
54 | CN1CC(C(=O)NCc2cccnc2)CC2c3cccc4c3c(cn4C)CC21 (stereo not drawn) |  | 15.5 nM | 
55 | CN(C)C1CCc2cccc(C(=O)c3ccccc3)c2C1 (stereo not drawn) | 1750 nM |  | 
56 | Cc1ccc2c3c([nH]c2c1)CNCC3 | 78.5 nM |  | 
57 | Cc1ccc2c(CCN)c[nH]c2c1 |  | 102 nM | 
58 | Cc1ccc2[nH]cc(CCN)c2c1 | 32.8 nM |  | 
59 | CCCC(=O)c1cccc2c1CC(NC)CC2 (stereo not drawn) | 1500 nM |  | 
60 | Brc1ccc2[nH]c3c(c2c1)CCNC3 [drawing 170] |  | 62.1 nM | 
61 | COc1ccc(CC2NCCc3c2[nH]c2c(Br)c(C)ccc32)c(OC)c1OC (stereo not drawn) | 8.77 nM |  | 
62 | CN(C)CCc1c[nH]c2ccc(OCc3ccccc3)cc12 |  | 38.5 nM | 
63 | COc1ccc(C(C)(C)C2NCCc3c2[nH]c2ccccc32)cc1OC (stereo not drawn) | 220 nM |  | 
64 | CCCCC(=O)c1cccc2c1CC(N(C)C)CC2 (stereo not drawn) | 936 nM |  | 
65 | c1ccc2c3c([nH]c2c1)CNCC3 |  | 379 nM | 
66 | COc1ccc2cccc(N3CCNCC3)c2c1 |  | 3.58 nM | 
67 | CC(C)n1cc(CCN)c2cc(Br)ccc21 | 475 nM |  | 
68 | CC(O)C(C)OC(=O)C1CC2c3cccc4c3c(cn4C(C)C)CC2N(C)C1 (stereo not drawn) | 6.87 nM |  | 
69 | CCCNCCc1c[nH]c2ccc(Br)cc12 |  | 131 nM | 
70 | CC(C)(C)c1ccc2[nH]c3c(c2c1)CCNC3Cc1cccc2ccccc12 (stereo not drawn) | 44.9 nM |  | 
71 | COC(=O)c1ccc2[nH]cc(CCN)c2c1 |  | 49.3 nM | 
72 | CN(C)C1CCc2cccc(C(=O)c3ccccc3F)c2C1 (stereo not drawn) | 3020 nM |  | 
73 | NCCc1c[nH]c2cc(O)c(O)cc12 |  | 41.6 nM | 
74 | NCCc1c[nH]c2ccc(Cl)cc12 | 6.21 nM |  | 
75 | CC(N)Cc1c[nH]c2cc(F)ccc12 (stereo not drawn) |  | 49.9 nM | 
76 | CCC(CO)NC(=O)C1C=C2c3cccc4c3c(cn4C)CC2N(C)C1 (stereo not drawn) |  | 6.28 nM | 
77 | NCCc1c[nH]c2c(F)cc(F)cc12 |  | 15.4 nM | 
78 | CCCN(CCC)CCc1c[nH]c2ccc(OC)cc12 |  | 169 nM | 
